Experimental data taken from ChEMBL document CHEMBL1201862, “PubChem BioAssay data set” (2004).
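These data come from cells grown in 96-well plates and exposed to compound for 48 hours at five concentrations. Abbreviation: GI50, concentration required for 50% inhibition of growth.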 The source made the active and inactive calls. Rule as the data show it: active = GI50 up to about 1.1 µM and inactive = higher.

Columns and labels:
Assay in all cases: NCI anticancer screen, dose series, 48 h
OVCAR-5 = test system: OVCAR-5
OVCAR-3 = test system: OVCAR-3
HCC 2998 = test system: HCC 2998
SN12C = test system: SN12C
SK-MEL-5 = test system: SK-MEL-5
K562 = test system: K562
A498 = test system: A498
HOP-62 = test system: HOP-62
SK-MEL-2 = test system: SK-MEL-2
A549 = test system: A549
COLO 205 = test system: COLO 205
SF-268 = test system: SF-268
TK-10 = test system: TK-10
U-251 = test system: U-251
EKVX = test system: EKVX
OVCAR-8 = test system: OVCAR-8
OVCAR-4 = test system: OVCAR-4
SK-OV-3 = test system: SK-OV-3
NCI-H226 = test system: NCI-H226
PC-3 = test system: PC-3

Measured: GI50

O=C1OC(c2ccccc2)=N/C1=C/NC(Cc1c[nH]cn1)C(=O)O (stereo not drawn)
inactive: OVCAR-5 > 100 µM | OVCAR-3 > 100 µM | HCC 2998 > 100 µM | SN12C > 100 µM | SK-MEL-5 > 100 µM | K562 > 100 µM | A498 > 100 µM | HOP-62 > 100 µM | SK-MEL-2 > 100 µM | A549 > 100 µM | COLO 205 > 100 µM | SF-268 > 100 µM | TK-10 > 100 µM | U-251 > 100 µM | EKVX > 100 µM | OVCAR-8 > 100 µM | OVCAR-4 > 100 µM | SK-OV-3 > 100 µM | NCI-H226 > 100 µM

O=C(O)C1CCCN1Cc1ccc2c(c1)OCO2 (stereo not drawn)
inactive: OVCAR-5 > 100 µM | OVCAR-3 > 100 µM | SN12C > 100 µM | SK-MEL-5 > 100 µM | K562 > 100 µM | A498 > 100 µM | HOP-62 > 100 µM | SK-MEL-2 > 100 µM | A549 > 100 µM | COLO 205 > 100 µM | PC-3 > 100 µM | SF-268 > 100 µM | TK-10 > 100 µM | U-251 > 100 µM | EKVX > 100 µM | OVCAR-8 > 100 µM | OVCAR-4 > 100 µM | SK-OV-3 > 100 µM | NCI-H226 > 100 µM

CCCCCC/C=C1\CCC(CN2CCOCC2)C1=O (stereo not drawn)
inactive: OVCAR-5 20.3 µM | OVCAR-3 18.5 µM | HCC 2998 19.2 µM | SN12C 17.2 µM | SK-MEL-5 18.1 µM | K562 3.07 µM | A498 18 µM | HOP-62 18.3 µM | SK-MEL-2 18.7 µM | A549 > 45.1 µM | COLO 205 17.1 µM | SF-268 19.6 µM | TK-10 13.4 µM | U-251 15.5 µM | EKVX 14.1 µM | OVCAR-8 16.8 µM | OVCAR-4 20.4 µM | SK-OV-3 35.8 µM | NCI-H226 16 µM

CC1(C)COC(c2c(-c3ccccc3)noc2C[S+]([O-])c2ccccc2)=N1 (stereo not drawn)
inactive: OVCAR-5 > 100 µM | OVCAR-3 > 100 µM | HCC 2998 32.3 µM | SN12C 31.3 µM | SK-MEL-5 38.3 µM | K562 40.9 µM | A498 20.3 µM | HOP-62 31.4 µM | SK-MEL-2 24.5 µM | A549 46 µM | COLO 205 40.4 µM | SF-268 19.9 µM | TK-10 > 100 µM | U-251 32.5 µM | EKVX 96.6 µM | OVCAR-8 37.3 µM | OVCAR-4 62.8 µM | SK-OV-3 72.3 µM | NCI-H226 30.3 µM

N#C/N=C1/c2ccccc2/C(=N/C#N)c2cc(CO)ccc21
inactive: OVCAR-5 50.9 µM | OVCAR-3 26.9 µM | SN12C 24.8 µM | SK-MEL-5 27 µM | K562 23.3 µM | A498 23.5 µM | HOP-62 42.6 µM | SK-MEL-2 61.2 µM | A549 20.9 µM | PC-3 33.7 µM | SF-268 39.2 µM | TK-10 27.3 µM | U-251 34.4 µM | EKVX 27.7 µM | OVCAR-8 37.8 µM | OVCAR-4 48.1 µM | NCI-H226 37.8 µM

CC[C@@H](C)[C@@H]1NC(=O)C(C(C)=O)=C1O
inactive: OVCAR-5 40.7 µM | OVCAR-3 27.6 µM | HCC 2998 30.8 µM | SN12C 25.1 µM | SK-MEL-5 15.6 µM | K562 24 µM | A498 24.4 µM | HOP-62 18.3 µM | SK-MEL-2 15.3 µM | A549 26.4 µM | COLO 205 17.9 µM | SF-268 24.1 µM | TK-10 40.6 µM | U-251 18.8 µM | EKVX 27.7 µM | OVCAR-8 24.9 µM | OVCAR-4 27.1 µM | SK-OV-3 23.2 µM | NCI-H226 31.7 µM

Cn1cnc([N+](=O)[O-])c1Sc1nc2ccccc2o1
inactive: OVCAR-5 14.2 µM | OVCAR-3 5.81 µM | HCC 2998 11 µM | SN12C 6.78 µM | SK-MEL-5 13.3 µM | K562 2.53 µM | A498 19.3 µM | HOP-62 36.8 µM | SK-MEL-2 28.1 µM | A549 23.1 µM | COLO 205 1.7 µM | SF-268 8.32 µM | TK-10 10.5 µM | U-251 12.6 µM | EKVX 10.2 µM | OVCAR-8 2.82 µM | OVCAR-4 4.35 µM | SK-OV-3 22.8 µM | NCI-H226 15.1 µM

COc1cc(/C=C2/SC(c3ccccc3)N(c3ccccc3)C2=O)cc(OC)c1OC (stereo not drawn)
inactive: OVCAR-5 > 100 µM | OVCAR-3 65.6 µM | HCC 2998 > 100 µM | SN12C > 100 µM | SK-MEL-5 12.1 µM | K562 8.97 µM | A498 > 100 µM | HOP-62 44.8 µM | SK-MEL-2 > 100 µM | A549 > 100 µM | COLO 205 36.9 µM | SF-268 > 100 µM | TK-10 > 100 µM | U-251 59.6 µM | EKVX 51.6 µM | OVCAR-8 76.4 µM | OVCAR-4 69.5 µM | SK-OV-3 35.8 µM | NCI-H226 80.4 µM

CC1=C(O)C(=O)C2C(=O)C1C(C)C2c1ccc(Cl)cc1 (stereo not drawn)
inactive: OVCAR-5 > 100 µM | OVCAR-3 > 100 µM | HCC 2998 > 100 µM | SK-MEL-5 > 100 µM | K562 > 100 µM | A498 > 100 µM | HOP-62 > 100 µM | SK-MEL-2 > 100 µM | A549 > 100 µM | COLO 205 > 100 µM | SF-268 > 100 µM | TK-10 > 100 µM | U-251 > 100 µM | EKVX > 100 µM | OVCAR-8 > 100 µM | OVCAR-4 > 100 µM | SK-OV-3 > 100 µM | NCI-H226 > 100 µM

CC(C)(C)OC(=O)C#CC[C@H]1CCCC1/C=C/C(O)=C1/C(=O)NC(CCCNC(=O)OC(C)(C)C)C1=O (stereo partly drawn)
inactive: OVCAR-5 88.5 µM | OVCAR-3 31.8 µM | HCC 2998 42.9 µM | SN12C 40.1 µM | SK-MEL-5 47.8 µM | K562 36 µM | A498 45.2 µM | HOP-62 45.4 µM | SK-MEL-2 16.6 µM | A549 > 100 µM | COLO 205 17.8 µM | SF-268 23.9 µM | TK-10 31.9 µM | U-251 25.9 µM | EKVX 16.3 µM | OVCAR-8 15.2 µM | OVCAR-4 33.5 µM | SK-OV-3 88.5 µM | NCI-H226 88.1 µM

COC12C=C(C)C(CC1)CC2C(=O)O (stereo not drawn)
inactive: OVCAR-5 > 100 µM | OVCAR-3 > 100 µM | HCC 2998 > 100 µM | SN12C > 100 µM | SK-MEL-5 > 100 µM | K562 > 100 µM | A498 > 100 µM | HOP-62 > 100 µM | SK-MEL-2 > 100 µM | A549 > 100 µM | COLO 205 > 100 µM | SF-268 > 100 µM | TK-10 > 100 µM | U-251 > 100 µM | EKVX > 100 µM | OVCAR-8 > 100 µM | OVCAR-4 > 100 µM | SK-OV-3 > 100 µM | NCI-H226 > 100 µM

Cn1c(=O)cc2[nH]c3ccccc3n2c1=O
inactive: OVCAR-5 > 100 µM | OVCAR-3 > 100 µM | HCC 2998 72.8 µM | SN12C > 10 µM | SK-MEL-5 > 100 µM | K562 42.1 µM | A498 > 100 µM | HOP-62 > 100 µM | SK-MEL-2 > 100 µM | A549 > 100 µM | COLO 205 14.2 µM | SF-268 > 100 µM | TK-10 81.7 µM | U-251 16.2 µM | EKVX > 100 µM | OVCAR-8 43.8 µM | OVCAR-4 27 µM | SK-OV-3 48.8 µM | NCI-H226 55.6 µM

COC(=O)[C@@]1(C(C)CC(=O)O)CCCCC1=O (stereo partly drawn)
inactive: OVCAR-5 > 100 µM | OVCAR-3 > 100 µM | HCC 2998 > 100 µM | SN12C > 100 µM | SK-MEL-5 > 100 µM | K562 > 100 µM | A498 > 100 µM | HOP-62 > 100 µM | SK-MEL-2 > 100 µM | A549 > 100 µM | COLO 205 50.7 µM | SF-268 > 100 µM | TK-10 > 100 µM | U-251 > 100 µM | EKVX > 100 µM | OVCAR-8 > 100 µM | OVCAR-4 > 100 µM | SK-OV-3 > 100 µM | NCI-H226 > 100 µM

O=S(=O)(O)c1cc(/N=N/c2c(O)ccc3ccccc23)ccc1/C=C/c1ccc(/N=N/c2c(O)ccc3ccccc23)cc1S(=O)(=O)O
inactive: OVCAR-5 > 100 µM | OVCAR-3 > 100 µM | SN12C > 100 µM | SK-MEL-5 > 100 µM | K562 > 100 µM | HOP-62 > 100 µM | SK-MEL-2 > 100 µM | A549 > 100 µM | COLO 205 > 100 µM | PC-3 > 100 µM | SF-268 > 100 µM | TK-10 > 100 µM | U-251 > 100 µM | EKVX > 100 µM | OVCAR-8 > 100 µM | OVCAR-4 > 100 µM | SK-OV-3 > 100 µM | NCI-H226 > 100 µM

CC(=O)Nc1ccc2cc(C)c(O)nc2n1
inactive: OVCAR-5 > 100 µM | SN12C > 100 µM | SK-MEL-5 > 100 µM | K562 > 100 µM | A498 > 100 µM | SK-MEL-2 > 100 µM | A549 > 100 µM | COLO 205 > 100 µM | PC-3 > 100 µM | SF-268 > 100 µM | TK-10 > 100 µM | U-251 > 100 µM | EKVX > 100 µM | OVCAR-8 > 100 µM | OVCAR-4 > 100 µM | SK-OV-3 > 100 µM
